Experimental data reported in patent US10329289B2, “6,7-dihydro-5H-pyrrolo[3,4-B]pyridin-5-one allosteric modulators of the M4 muscarinic acetylcholine receptor” (Merck Sharp & Dohme Corp., priority 2015, dated 2019).
pEC50: −log10 of the molar value.

The compounds below were run against T1, human M4 muscarinic acetylcholine receptor (Homo sapiens, UniProt P08173) (assay: human FLIPR-based M4 PAM assay (Ca2+ mobilization, CHO-K1 cells with human M4 receptor and Gαqi5)). Settings: acetylcholine at 20% of maximum response, read-out: M4 PAM IP.
T1 construct: expressed in transfected cells; host or cells: CHO-K1
T1 sequence (P08173 1-479): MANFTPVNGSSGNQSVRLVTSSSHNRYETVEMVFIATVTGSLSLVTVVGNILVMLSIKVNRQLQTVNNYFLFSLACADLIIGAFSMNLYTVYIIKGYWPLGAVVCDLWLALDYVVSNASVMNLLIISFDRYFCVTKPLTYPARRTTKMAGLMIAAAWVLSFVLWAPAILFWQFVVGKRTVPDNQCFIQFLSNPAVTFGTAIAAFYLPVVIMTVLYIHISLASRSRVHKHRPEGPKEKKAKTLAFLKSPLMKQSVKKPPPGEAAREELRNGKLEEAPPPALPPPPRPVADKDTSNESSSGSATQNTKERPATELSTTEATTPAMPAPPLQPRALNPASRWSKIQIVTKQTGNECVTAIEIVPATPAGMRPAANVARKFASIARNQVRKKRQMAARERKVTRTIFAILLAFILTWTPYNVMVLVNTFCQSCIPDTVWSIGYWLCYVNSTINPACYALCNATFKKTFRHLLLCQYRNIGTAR
Type: cell-based
Summary of the method: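 Calcium-mobilization (FLIPR) readout in dye-loaded CHO-K1 cells co-expressing human M4 receptor and Gαqi5. Potentiation measured against acetylcholine at a concentration giving 20% of maximal response, with an optional 70% addition; the reported value is the curve inflection point from a 4-parameter logistic fit.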

In order of falling pEC50:
1. Cc1c(N2CC[C@@H](OCC3(C)CC3)[C@@H](F)C2)nc2c(c1C)C(=O)N(C)[C@@H]2CO [Example 341A, (S)-2-((3S,4R)-3-fluoro-4-((1-methylcyclopropyl)methoxy)piperidin-1-yl)-7-(hydroxymethyl)-3,4,6-trimethyl-6,7-dihydro-5H-pyrrolo[3,4-b]pyridin-5-one]  8.05
2. Cc1cc2c(nc1N1CCC(Oc3ccc4c(c3)CC(O)C4)CC1)CNC2=O (centres unmarked) [Example 324, 2-(4-((2-Hydroxy-2,3-dihydro-1H-inden-5-yl)oxy)piperidin-1-yl)-3-methyl-6,7-dihydro-5H-pyrrolo[3,4-b]pyridin-5-one]  7.77
3. Cc1cc2c(nc1N1CC[C@@H](Oc3ccc4c(c3)COCC4)[C@@H](F)C1)CNC2=O [Example 178B, 2-((3S,4R)-3-fluoro-4-(isochroman-7-yloxy)piperidin-1-yl)-3-methyl-6,7-dihydro-5H-pyrrolo[3,4-b]pyridin-5-one]  7.74
4. Cc1c(N2CCC(OCC3(C)CC3)CC2)nc2c(c1C)C(=O)N(CCO)C2 [Example 267, 6-(2-hydroxyethyl)-3,4-dimethyl-2-(4-((1-methylcyclopropyl)methoxy)piperidin-1-yl)-6,7-dihydro-5H-pyrrolo[3,4-b]pyridin-5-one]  7.47
5. CCOc1ccc(OC2CCN(c3nc4c(cc3C)C(=O)N(C)[C@@H]4CO)CC2)cn1 [Example 286, (S)-2-(4-((6-ethoxypyridin-3-yl)oxy)piperidin-1-yl)-7-(hydroxymethyl)-3,6-dimethyl-6,7-dihydro-5H-pyrrolo[3,4-b]pyridin-5-one]  7.42
6. Cc1cc2c(nc1N1CCC(Oc3ccc4c(c3)C(=O)OC4)CC1)CNC2=O [Example 110, 3-methyl-2-(4-((3-oxo-1,3-dihydro-2-benzofuran-5-yl)oxy)piperidin-1-yl)-6,7-dihydro-5H-pyrrolo[3,4-b]pyridin-5-one]  7.41
7. Cc1cc2c(nc1N1CCC(Oc3ccc(O[C@@H](C)CO)nc3)CC1)CNC2=O (single isomer, unassigned) [Example 141B]  7.26
8. CCN1Cc2nc(N3CCC(Oc4cccc(C#N)c4)CC3)c(C)cc2C1=O [Example 242, 3-((1-(6-ethyl-3-methyl-5-oxo-6,7-dihydro-5H-pyrrolo[3,4-b]pyridin-2-yl)piperidin-4-yl)oxy)benzonitrile]  7.13
9. Cc1cc2c(nc1N1CCC(Oc3ccc4c(c3)NCCO4)CC1)CNC2=O [Example 107, 2-(4-((3,4-dihydro-2H-benzo[b][1,4]oxazin-6-yl)oxy)piperidin-1-yl)-3-methyl-6,7-dihydro-5H-pyrrolo[3,4-b]pyridin-5-one]  7.06
10. Cc1cc2c(nc1N1CCC(Oc3ccc4nn(C)cc4c3)CC1)CNC2=O [Example 202A, 3-methyl-2-(4-((2-methyl-2H-indazol-5-yl)oxy)piperidin-1-yl)-6,7-dihydro-5H-pyrrolo[3,4-b]pyridin-5-one]  7.02
11. Cc1cc2c(nc1N1CCC(Oc3ccc(N4CCC4)nc3)CC1)CNC2=O [Example 105, 2-(4-((6-(azetidin-1-yl)pyridin-3-yl)oxy)piperidin-1-yl)-3-methyl-6,7-dihydro-5H-pyrrolo[3,4-b]pyridin-5-one]  6.98
12. COc1ccc(OC2CCN(c3nc4c(cc3C)C(=O)N([C@H](C)CO)C4)CC2)cn1 (single isomer, unassigned) [Example 264B]  6.97
13. COc1ncc(OC2CCN(c3nc4c(cc3C)C(=O)NC4)CC2)cc1C [Example 115, 2-(4-((6-methoxy-5-methylpyridin-3-yl)oxy)piperidin-1-yl)-3-methyl-6,7-dihydro-5H-pyrrolo[3,4-b]pyridin-5-one]  6.92
14. CNc1ccc(OC2CCN(c3nc4c(cc3C)C(=O)NC4)CC2)cn1 [Example 320, 3-Methyl-2-(4-((6-(methylamino)pyridin-3-yl)oxy)piperidin-1-yl)-6,7-dihydro-5H-pyrrolo[3,4-b]pyridin-5-one]  6.82
15. CCc1cc2c(nc1N1CC[C@H](OCC3(C)CC3)[C@@H](F)C1)CN(CCO)C2=O [Example 266E, 3-ethyl-2-((3S,4S)-3-fluoro-4-((1-methylcyclopropyl)methoxy)piperidin-1-yl)-6-(2-hydroxyethyl)-6,7-dihydro-5H-pyrrolo[3,4-b]pyridin-5-one]  6.80
16. Cc1c(N2CCC(Oc3cccc(C#N)c3)CC2)nc2c(c1C)C(=O)NC2 [Example 94A, 3-((1-(3,4-dimethyl-5-oxo-6,7-dihydro-5H-pyrrolo[3,4-b]pyridin-2-yl)piperidin-4-yl)oxy)benzonitrile]  6.71
17. COC(=O)c1cc2c(nc1N1CCC(Oc3ccc(OC)nc3)CC1)CNC2=O [Example 160, methyl 2-(4-((6-methoxypyridin-3-yl)oxy)piperidin-1-yl)-5-oxo-6,7-dihydro-5H-pyrrolo[3,4-b]pyridine-3-carboxylate]  6.64
18. Cc1cc2c(nc1N1CCC(Oc3ccc4c(c3)CCNC4)CC1)CNC2=O [Example 144, 3-Methyl-2-(4-((1,2,3,4-tetrahydroisoquinolin-6-yl)oxy)piperidin-1-yl)-6,7-dihydro-5H-pyrrolo[3,4-b]pyridin-5-one]  6.50
19. Cc1cc2c(nc1N1CCC(Oc3cnc4c(c3)COCC4)CC1)CN(C)C2=O [Example 53, 2-(4-((7,8-dihydro-5H-pyrano[4,3-b]pyridin-3-yl)oxy)piperidin-1-yl)-3,6-dimethyl-6,7-dihydro-5H-pyrrolo[3,4-b]pyridin-5-one]  6.35
20. Cc1cc2c(nc1N1CCC(Oc3cnc4c(c3)CCCO4)CC1)CNC2=O [Example 194, 2-(4-((3,4-dihydro-2H-pyrano[2,3-b]pyridin-6-yl)oxy)piperidin-1-yl)-3-methyl-6,7-dihydro-5H-pyrrolo[3,4-b]pyridin-5-one]  6.27
21. Cc1cc2c(nc1N1CCC(OC[C@@H]3C[C@H]3C(F)(F)F)CC1)CNC2=O (single isomer, unassigned) [Example 3A, 3-methyl-2-(4-(((trans)-2-(trifluoromethyl)cyclopropyl)methoxy)piperidin-1-yl)-6,7-dihydro-5H-pyrrolo[3,4-b]pyridin-5-one]  6.20
22. COc1ccc(OC2CCN(c3nc4c(cc3CF)C(=O)NC4)CC2)cn1 [Example 304, 3-(Fluoromethyl)-2-(4-((6-methoxypyridin-3-yl)oxy)piperidin-1-yl)-6,7-dihydro-5H-pyrrolo[3,4-b]pyridin-5-one]  5.95
23. Cc1cc2c(nc1N1CCC(OCC3(C)CC3C#N)CC1)CNC2=O (single isomer, unassigned) [Example 191A]  5.83
24. COC(=O)c1c(C)c(N2CCC(Oc3ccc4c(c3)COC4)CC2)nc2c1C(=O)NC2 [Example 212, methyl 2-(4-((1,3-dihydro-2-benzofuran-5-yl)oxy)piperidin-1-yl)-3-methyl-5-oxo-6,7-dihydro-5H-pyrrolo[3,4-b]pyridine-4-carboxylate]  5.74
25. Cc1cc2c(nc1N1CCC(Oc3ccon3)CC1)CNC2=O [Example 86, 2-(4-(isoxazol-3-yloxy)piperidin-1-yl)-3-methyl-6,7-dihydro-5H-pyrrolo[3,4-b]pyridin-5-one]  5.24
26. Cc1cc2c(nc1N1CCC(OCC3(C)CC3C#N)CC1)CNC2=O (single isomer, unassigned) [Example 191B]  4.52
